The values that follow come from PubChem BioAssay AID248 (DTP/NCI, 2004).

Values joined by “and” are separate entries in the source; they are usually repeats but may differ in a detail not shown here. Identical values can stand only once. Toxic doses and inconclusive results are not listed.

This test has as its system L1210 leukemia ip in BDF1 mice, survival T/C. As to the kind of experiment: NCI In Vivo Anticancer Drug Screen. Data for tumor model L1210 Leukemia (intraperitoneal) in B6D2F1 (BDF1) mice. The settings on record: endpoint: mean survival time, higher = longer survival. In a few lines:
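Ratio derived from survival: compound-dosed mice over vehicle-dosed mice, all bearing a transplantable tumor.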

Setting [1] is: dose: 200.0 mg/kg/injection, schedule: Q01DX009 (ip), vehicle: saline.
[2] abbreviates: dose: 400.0 mg/kg/injection, schedule: Q01DX001 (ip), vehicle: carboxymethylcellulose (CMC).

Regarding `CC1(O)C=CCC1` (stereo unspecified), the T/C runs as follows: (dose: 75.0 mg/kg/injection, schedule: Q01DX001 (ip), vehicle: carboxymethylcellulose (CMC)) 104 % of control; (dose: 150.0 mg/kg/injection, schedule: Q01DX001 (ip), vehicle: carboxymethylcellulose (CMC)) 102 % of control.
Regarding `N\C([S-])=N/N=C\C(=N/N=C(\N)[S-])C(O)C(O)C(O)CO.[Pt+2]` (stereo unspecified), the T/C was 91 % of control (dose: 50.0 mg/kg/injection, schedule: Q01DX009 (ip), vehicle: saline); 92 % of control (dose: 100.0 mg/kg/injection, schedule: Q04DX003 (ip), vehicle: saline with Tween-80); 100 % of control under setting [1]; 89 % of control (dose: 200.0 mg/kg/injection, schedule: Q04DX003 (ip), vehicle: saline with Tween-80); 96 % of control (dose: 400.0 mg/kg/injection, schedule: Q04DX003 (ip), vehicle: saline with Tween-80).
For the molecule `COC(=O)C1C2CC3c4[nH]c5ccc(OC)cc5c4CCN3CC2CC(OC(=O)c2cc(OC)c(OC)c(OC)c2)C1OC` (stereo unspecified), the T/C by setting is: (dose: 10.0 mg/kg/injection, schedule: Q04DX003 (ip), vehicle: Klucel (hydroxypropylcellulose) (HPC)) 102 % of control; (dose: 20.0 mg/kg/injection, schedule: Q04DX003 (ip), vehicle: Klucel (hydroxypropylcellulose) (HPC)) 98 % of control; (dose: 22.81 mg/kg/injection, schedule: Q01DX009 (ip), vehicle: Klucel (hydroxypropylcellulose) (HPC)) 111 % of control; (dose: 40.0 mg/kg/injection, schedule: Q04DX003 (ip), vehicle: Klucel (hydroxypropylcellulose) (HPC)) 114 % of control; (dose: 45.62 mg/kg/injection, schedule: Q01DX009 (ip), vehicle: Klucel (hydroxypropylcellulose) (HPC)) 91 % of control; (dose: 80.0 mg/kg/injection, schedule: Q04DX003 (ip), vehicle: Klucel (hydroxypropylcellulose) (HPC)) 96 % of control. The T/C is 94 % of control (dose: 91.25 mg/kg/injection, schedule: Q01DX009 (ip), vehicle: Klucel (hydroxypropylcellulose) (HPC)); 93 % of control (dose: 160.0 mg/kg/injection, schedule: Q04DX003 (ip), vehicle: Klucel (hydroxypropylcellulose) (HPC)); 107 % of control (dose: 240.0 mg/kg/injection, schedule: Q04DX003 (ip), vehicle: Klucel (hydroxypropylcellulose) (HPC)); 102 % of control (dose: 365.0 mg/kg/injection, schedule: Q04DX003 (ip), vehicle: Klucel (hydroxypropylcellulose) (HPC)).
In the case of `CC[C@@]1(O)C(=O)OCc2c1cc1n(c2=O)Cc2cc3cc(OC)ccc3nc2-1`, the T/C by setting is: (dose: 0.36 mg/kg/injection, schedule: Q01DX001 (ip), vehicle: saline) 114 % of control; (dose: 0.55 mg/kg/injection, schedule: Q01DX001 (ip), vehicle: saline) 122 % of control; (dose: 0.83 mg/kg/injection, schedule: Q01DX001 (ip), vehicle: saline) 120 % of control; (dose: 0.97 mg/kg/injection, schedule: Q01DX009 (ip), vehicle: saline) 203 % of control; (dose: 1.4 mg/kg/injection, schedule: Q01DX009 (ip), vehicle: saline) 225 % of control; (dose: 2.2 mg/kg/injection, schedule: Q01DX009 (ip), vehicle: saline) 97 % of control. Also, the T/C was 162 % of control (dose: 2.5 mg/kg/injection, schedule: Q01DX001 (ip), vehicle: saline); 160 % of control (dose: 4.4 mg/kg/injection, schedule: Q01DX001 (ip), vehicle: saline); 176 % of control (dose: 5.0 mg/kg/injection, schedule: Q01DX001 (ip), vehicle: saline); 178 % of control (dose: 6.6 mg/kg/injection, schedule: Q01DX001 (ip), vehicle: saline); 172 % of control and 250 % of control (dose: 10.0 mg/kg/injection, schedule: Q01DX001 (ip), vehicle: saline); 122 % of control (dose: 15.0 mg/kg/injection, schedule: Q01DX001 (ip), vehicle: saline). The T/C is, setting by setting: (dose: 20.0 mg/kg/injection, schedule: Q01DX001 (ip), vehicle: saline) 112 % of control; (dose: 36.0 micrograms/kg/injection, schedule: Q01DX009 (ip), vehicle: saline) 95 % of control; (dose: 56.0 micrograms/kg/injection, schedule: Q01DX009 (ip), vehicle: saline) 104 % of control; (dose: 84.0 micrograms/kg/injection, schedule: Q01DX009 (ip), vehicle: saline) 115 % of control; (dose: 127.0 micrograms/kg/injection, schedule: Q01DX009 (ip), vehicle: saline) 121 % of control; (dose: 287.0 micrograms/kg/injection, schedule: Q01DX009 (ip), vehicle: saline) 123 % of control. The T/C (dose: 430.0 micrograms/kg/injection, schedule: Q01DX009 (ip), vehicle: saline) was 117 % of control and the T/C (dose: 646.0 micrograms/kg/injection, schedule: Q01DX009 (ip), vehicle: saline) is 150 % of control.
Consider `COc1ccc2c(c1)CN(S(=O)(=O)c1ccc(C)cc1)CCC2=O`, for which the T/C is 102 % of control (dose: 100.0 mg/kg/injection, schedule: Q01DX009 (ip), vehicle: saline); 98 % of control under setting [1]; 95 % of control (dose: 400.0 mg/kg/injection, schedule: Q01DX009 (ip), vehicle: saline).
On to `O=C(Nc1cccc(F)c1)Nc1ccc(Cl)cc1Cl`, for which the T/C is 96 % of control (dose: 100.0 mg/kg/injection, schedule: Q01DX009 (ip), vehicle: Klucel (hydroxypropylcellulose) (HPC)) and 91 % of control (dose: 200.0 mg/kg/injection, schedule: Q01DX009 (ip), vehicle: Klucel (hydroxypropylcellulose) (HPC)).
Take `O=C(Nc1ccc(F)c(Cl)c1)Oc1cc(=O)oc2ccccc12`: the T/C by setting is: (dose: 100.0 mg/kg/injection, schedule: Q04DX003 (ip), vehicle: Klucel (hydroxypropylcellulose) (HPC)) 92 % of control; (dose: 200.0 mg/kg/injection, schedule: Q04DX003 (ip), vehicle: Klucel (hydroxypropylcellulose) (HPC)) 101 % of control; (dose: 400.0 mg/kg/injection, schedule: Q04DX003 (ip), vehicle: Klucel (hydroxypropylcellulose) (HPC)) 105 % of control.
Turning to `C/C(=C\c1ccccc1)C(=O)C1C(c2ccccc2)CC(=O)C(C)C1c1ccccc1` (stereo unspecified), the T/C reads like this: (dose: 50.0 mg/kg/injection, schedule: Q04DX002 (ip), vehicle: saline + alcohol) 98 % of control; (dose: 100.0 mg/kg/injection, schedule: Q04DX002 (ip), vehicle: saline + alcohol) 91 % of control; (dose: 200.0 mg/kg/injection, schedule: Q04DX002 (ip), vehicle: saline + alcohol) 91 % of control.
Regarding `COc1ccc(C(O)c2c(CN3CCCCC3)c3ccccc3n2C)cc1` (stereo unspecified), the T/C is 100 % of control (dose: 100.0 mg/kg/injection, schedule: Q04DX002 (ip), vehicle: saline with Tween-80) and 97 % of control (dose: 200.0 mg/kg/injection, schedule: Q04DX002 (ip), vehicle: saline with Tween-80).
Consider `O=P(CCCCCCCCCCP(=O)(c1ccccc1)c1ccccc1)(c1ccccc1)c1ccccc1`, for which the T/C (dose: 100.0 mg/kg/injection, schedule: Q01DX001 (ip), vehicle: saline) was 91 % of control; the T/C (dose: 200.0 mg/kg/injection, schedule: Q01DX001 (ip), vehicle: saline) is 92 % of control; the T/C (dose: 400.0 mg/kg/injection, schedule: Q01DX001 (ip), vehicle: saline) was 92 % of control.
Turning to `COc1ncnc2c1ncn2-c1cccc(C)c1`, the T/C is 104 % of control (dose: 50.0 mg/kg/injection, schedule: Q01DX001 (ip), vehicle: carboxymethylcellulose (CMC)); 98 % of control (dose: 100.0 mg/kg/injection, schedule: Q01DX001 (ip), vehicle: carboxymethylcellulose (CMC)); 104 % of control (dose: 200.0 mg/kg/injection, schedule: Q01DX001 (ip), vehicle: carboxymethylcellulose (CMC)); 104 % of control under setting [2].
Take `C/C(=C\C(=O)O)C(=O)O` (tested in a mixture with another compound): the T/C is, setting by setting: (dose: 264.0 mg/kg/injection, schedule: Q01DX001 (ip), vehicle: carboxymethylcellulose (CMC)) 113 % of control; under setting [2], 112 % of control; (dose: 600.0 mg/kg/injection, schedule: Q01DX001 (ip), vehicle: carboxymethylcellulose (CMC)) 112 % of control.
For `CC(=O)OC(CNCC(=O)O)C(Cl)(Cl)Cl` (stereo unspecified), the T/C was 90 % of control (dose: 100.0 mg/kg/injection, schedule: Q01DX009 (ip), vehicle: saline with Tween-80); 95 % of control (dose: 200.0 mg/kg/injection, schedule: Q01DX009 (ip), vehicle: saline with Tween-80); 97 % of control (dose: 400.0 mg/kg/injection, schedule: Q01DX009 (ip), vehicle: saline with Tween-80).
Consider `O=C(CCCCC(=O)OCC1COCO1)OCC1COCO1` (stereo unspecified), for which the T/C reads like this: (dose: 222.0 mg/kg/injection, schedule: Q01DX Z (ip), vehicle: methylcellulose (MC)) 98 % of control; (dose: 333.0 mg/kg/injection, schedule: Q01DX Z (ip), vehicle: methylcellulose (MC)) 98 % of control; (dose: 500.0 mg/kg/injection, schedule: Q01DX Z (ip), vehicle: methylcellulose (MC)) 98 % of control.
